According to patent publication US20060069132A1, “Azolecarboxamide herbicides” (priority 2004, published 2006):
Read-outs that look alike come from different tables or passages of the source.

Experiments:
morningglory = experiment: Test C pre-/postemergence herbicide test; assay type: in vivo, Ipomoea coccinea; parameters: key to Plant response rating, Morningglory: 0 = no effect, 100 = complete control
Procedure, shortened: (§1)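 Pre- and postemergence application, solvent/surfactant formulation; post at 1- to 4-leaf stage (2–18 cm). Greenhouse 12–14 d. Visual rating vs controls, 0 = no effect, 100 = complete control.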

large crabgrass = experiment: Test A pre-/postemergence herbicide test; assay type: in vivo, Digitaria sanguinalis; conditions: for pest or weed control at 500 g/ha / pest or weed control at 2000 g/ha: Digitaria sanguinalis, 240 h
Procedure, shortened: (§2)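 Visual injury rating on a 0–100 scale (0 no effect, 100 complete control) versus untreated controls, about ten days after treatment in greenhouse. Pre: directed soil spray onto seeded sandy loam. Post: spray to runoff on plants 2–10 cm tall at one- to two-leaf stage.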

soybean = experiment: Test C pre-/postemergence herbicide test; assay type: in vivo, Glycine max
Procedure, shortened: as §1

yellow nutsedge = experiment: Test C pre-/postemergence herbicide test; assay type: in vivo, Cyperus esculentus
Procedure, shortened: as §1

giant foxtail [1] = experiment: Test C pre-/postemergence herbicide test; assay type: in vivo, Setaria faberi
Procedure, shortened: as §1

velvetleaf = experiment: Test A pre-/postemergence herbicide test; assay type: in vivo, Abutilon theophrasti
Procedure, shortened: as §2

giant foxtail [2] = experiment: Test A pre-/postemergence herbicide test; assay type: in vivo, Setaria faberi; conditions: for pest or weed control at 500 g/ha / pest or weed control at 2000 g/ha: Setaria faberi, 240 h
Procedure, shortened: as §2

woolly cupgrass = experiment: Test C pre-/postemergence herbicide test; assay type: in vivo, Eriochloa villosa
Procedure, shortened: as §1

[3] = Postemergence, 500 g ai/ha, scale 0 to 100
[4] = 125 g ai/ha, scale 0 (no effect) to 100 (complete control), visual, 12 to 14 days, preemergence
[5] = 250 g ai/ha, scale 0 to 100 (0 no effect, 100 complete control), visual, 12 to 14 days, preemergence
[6] = Postemergence, 250 g ai/ha, scale 0 to 100, 0 no effect, 100 complete control
[7] = postemergence, 62 g ai/ha, scale 0 to 100
[8] = Postemergence, 500 g ai/ha, 0 to 100 scale, 0 no effect, 100 complete control
[9] = Postemergence, 2000 g ai/ha, 0 to 100 scale, 0 no effect, 100 complete control
[10] = Preemergence, 500 g ai/ha, visual rating, 0 to 100 scale (0 no effect, 100 complete control)
[11] = Preemergence, 2000 g ai/ha, 0 to 100 scale, 0 no effect, 100 complete control
[12] = Postemergence, 125 g ai/ha, scale 0 to 100, 0 no effect, 100 complete control

Structure (SMILES): CCn1nc(C(C)(C)C)cc1C(=O)Nc1cccc(C(=O)OCCF)c1 [Compound 82, 2-fluoroethyl 3-[[[3-(1,1-dimethylethyl)-1-ethyl-1H-pyrazol-5-yl]-carbonyl]amino]benzoate]
- pest or weed control at 250 g/ha (morningglory; Ipomoea, post-emergence, Postemergence, 250 g ai/ha, scale 0 to 100, 0 no effect, 100 complete control, read-out: Plant response rating, Morningglory): 50%
- pest or weed control at 125 g/ha (morningglory; Ipomoea, post-emergence, postemergence, 125 g ai/ha, scale 0 to 100, read-out: Plant response rating, Morningglory): 10%
- pest or weed control at 62 g/ha (morningglory; Ipomoea, post-emergence, postemergence, 62 g ai/ha, scale 0 to 100, read-out: Plant response rating, Morningglory): 10%
- Morningglory plant response rating (morningglory; [3]): 50
- pest or weed control at 500 g/ha (large crabgrass; post-emergence, Postemergence, 500 g ai/ha, 0 to 100 scale, 0 no effect, 100 complete control, read-out: Plant response rating, Crabgrass, Large): 20%
- pest or weed control at 2000 g/ha (large crabgrass; post-emergence, Postemergence, 2000 g ai/ha, 0 to 100 scale, 0 no effect, 100 complete control, read-out: Plant response rating, Crabgrass, Large): 30%
- pest or weed control at 500 g/ha (large crabgrass; pre-emergence, Preemergence, 500 g ai/ha, visual rating, 0 to 100 scale (0 no effect, 100 complete control), read-out: Crabgrass, Large plant response rating): 0%
- pest or weed control at 2000 g/ha (large crabgrass; pre-emergence, Preemergence, 2000 g ai/ha, 0 to 100 scale, 0 no effect, 100 complete control, read-out: Crabgrass, Large plant response rating): 0%
- plant injury at 250 g/ha (soybean; Glycine max, post-emergence, Postemergence, 250 g ai/ha, scale 0 to 100, 0 no effect, 100 complete control, read-out: Plant response rating, Soybean): 40%
- plant injury at 125 g/ha (soybean; Glycine max, post-emergence, postemergence, 125 g ai/ha, scale 0 to 100, read-out: Plant response rating, Soybean): 30%
- plant injury at 62 g/ha (soybean; Glycine max, post-emergence, postemergence, 62 g ai/ha, scale 0 to 100, read-out: Plant response rating, Soybean): 20%
- Soybean plant response rating (soybean; [3]): 40
- pest or weed control at 250 g/ha (yellow nutsedge; Cyperus, post-emergence, Postemergence, 250 g ai/ha, scale 0 to 100, 0 no effect, 100 complete control, read-out: Plant response rating, Nutsedge, Yellow): 5%
- pest or weed control at 125 g/ha (yellow nutsedge; Cyperus, post-emergence, postemergence, 125 g ai/ha, scale 0 to 100, read-out: Plant response rating, Nutsedge, Yellow): 5%
- pest or weed control at 62 g/ha (yellow nutsedge; Cyperus, post-emergence, postemergence, 62 g ai/ha, scale 0 to 100, read-out: Plant response rating, Nutsedge, Yellow): 0%
- Nutsedge, Yellow plant response rating (yellow nutsedge; [3]): 5
- Foxtail, Giant plant response rating (giant foxtail [1]; [3]): 30
- pest or weed control at 250 g/ha (giant foxtail [1]; Setaria faberi, post-emergence, 312 h, Postemergence, 250 g ai/ha, scale 0 to 100, 0 no effect, 100 complete control, read-out: Plant response rating, Foxtail, Giant): 10%
- pest or weed control at 125 g/ha (giant foxtail [1]; Setaria faberi, post-emergence, 312 h, postemergence, 125 g ai/ha, scale 0 to 100, read-out: Plant response rating, Foxtail, Giant): 0%
- pest or weed control at 62 g/ha (giant foxtail [1]; Setaria faberi, post-emergence, 312 h, postemergence, 62 g ai/ha, scale 0 to 100, read-out: Plant response rating, Foxtail, Giant): 0%
- pest or weed control at 2000 g/ha (velvetleaf; Abutilon theophrasti, post-emergence, 240 h, Postemergence, 2000 g ai/ha, 0 to 100 scale, 0 no effect, 100 complete control, read-out: Plant response rating, Velvetleaf): 30%
- pest or weed control at 500 g/ha (velvetleaf; Abutilon theophrasti, pre-emergence, 240 h, Preemergence, 500 g ai/ha, visual rating, 0 to 100 scale (0 no effect, 100 complete control), read-out: Velvetleaf plant response rating): 0%
- pest or weed control at 2000 g/ha (velvetleaf; Abutilon theophrasti, pre-emergence, 240 h, Preemergence, 2000 g ai/ha, visual rating, 0 to 100 scale (0 no effect, 100 complete control), read-out: Velvetleaf plant response rating): 0%
- pest or weed control at 500 g/ha (giant foxtail [2]; post-emergence, Postemergence, 500 g ai/ha, 0 to 100 scale, 0 no effect, 100 complete control, read-out: Plant response rating, Foxtail, Giant): 20%
- pest or weed control at 2000 g/ha (giant foxtail [2]; post-emergence, Postemergence, 2000 g ai/ha, 0 to 100 scale, 0 no effect, 100 complete control, read-out: Plant response rating, Foxtail, Giant): 20%
- pest or weed control at 500 g/ha (giant foxtail [2]; pre-emergence, Preemergence, 500 g ai/ha, visual rating, 0 to 100 scale (0 no effect, 100 complete control), read-out: Foxtail, Giant plant response rating): 0%
- pest or weed control at 2000 g/ha (giant foxtail [2]; pre-emergence, Preemergence, 2000 g ai/ha, 0 to 100 scale, 0 no effect, 100 complete control, read-out: Foxtail, Giant plant response rating): 0%
- pest or weed control at 250 g/ha (woolly cupgrass; Eriochloa villosa, post-emergence, 312 h, Postemergence, 250 g ai/ha, scale 0 to 100, 0 no effect, 100 complete control, read-out: Plant response rating, Cupgrass, Woolly): 80%
- pest or weed control at 125 g/ha (woolly cupgrass; Eriochloa villosa, post-emergence, 312 h, postemergence, 125 g ai/ha, scale 0 to 100, read-out: Plant response rating, Cupgrass, Woolly): 60%
- Cupgrass, Woolly plant response rating (woolly cupgrass; [3]): 80

Structure (SMILES): CCn1nc(C(C)(C)C)cc1C(=O)Nc1cccc(C(=O)NC2CC2)c1 [Compound 44]
- Plant response rating (0 = no effect, 100 = complete control), Morningglory (morningglory; 62 g ai/ha, preemergence): 0
- Plant response rating, Morningglory (morningglory; [4]): 0
- Plant response rating, Morningglory (morningglory; [5]): 0
- Plant response rating, Morningglory (morningglory; [6]): 80
- Plant response rating, Morningglory (morningglory; [7]): 50
- Plant response rating, Crabgrass, Large (large crabgrass; [8]): 55
- Plant response rating, Crabgrass, Large (large crabgrass; [9]): 80
- Crabgrass, Large plant response rating (large crabgrass; [10]): 45
- Crabgrass, Large plant response rating (large crabgrass; [11]): 90
- Plant response rating (0 = no effect, 100 = complete control), Soybean (soybean; 62 g ai/ha, preemergence): 0
- Plant response rating, Soybean (soybean; [4]): 10
- Plant response rating, Soybean (soybean; [5]): 10
- Plant response rating, Soybean (soybean; [6]): 100
- Plant response rating, Soybean (soybean; [7]): 100
- Plant response rating (0 = no effect, 100 = complete control), Nutsedge, Yellow (yellow nutsedge; 62 g ai/ha, preemergence): 0
- Plant response rating, Nutsedge, Yellow (yellow nutsedge; [4]): 0
- Plant response rating, Nutsedge, Yellow (yellow nutsedge; [5]): 0
- Plant response rating, Nutsedge, Yellow (yellow nutsedge; [6]): 20
- Plant response rating, Nutsedge, Yellow (yellow nutsedge; [7]): 20
- Plant response rating (0 = no effect, 100 = complete control), Foxtail, Giant (giant foxtail [1]; 62 g ai/ha, preemergence): 10
- Plant response rating, Foxtail, Giant (giant foxtail [1]; [4]): 10
- Plant response rating, Foxtail, Giant (giant foxtail [1]; [5]): 10
- Plant response rating, Foxtail, Giant (giant foxtail [1]; [12]): 30
- Plant response rating, Foxtail, Giant (giant foxtail [1]; [6]): 50
- Plant response rating, Foxtail, Giant (giant foxtail [1]; [7]): 30
- Plant response rating, Velvetleaf (velvetleaf; [9]): 65
- Velvetleaf plant response rating (velvetleaf; [10]): 20
- Velvetleaf plant response rating (velvetleaf; [11]): 35
- Plant response rating, Foxtail, Giant (giant foxtail [2]; [8]): 50
- Plant response rating, Foxtail, Giant (giant foxtail [2]; [9]): 90
- Foxtail, Giant plant response rating (giant foxtail [2]; [10]): 65
- Foxtail, Giant plant response rating (giant foxtail [2]; [11]): 100
- Plant response rating (0 = no effect, 100 = complete control), Cupgrass, Woolly (woolly cupgrass; 62 g ai/ha, preemergence): 0
- Plant response rating, Cupgrass, Woolly (woolly cupgrass; [4]): 10
- Plant response rating, Cupgrass, Woolly (woolly cupgrass; [5]): 10
- Plant response rating, Cupgrass, Woolly (woolly cupgrass; [12]): 60
- Plant response rating, Cupgrass, Woolly (woolly cupgrass; [6]): 60
- Plant response rating, Cupgrass, Woolly (woolly cupgrass; [7]): 50
